± gives the expanded uncertainty stated by the source.
How the values were obtained:
[1] = 101.33 kPa, Liquid, Vibrating tube method
[2] = activity coefficient (dimensionless); of the first substance listed, at infinite dilution; xn = mol fraction of the nth substance listed; conditions: 101 kPa, Liquid, Chromatography, x1 = 0

Structure (SMILES)	mass density ([1]; 293.15 K)	mass density ([1]; 303.15 K)	mass density ([1]; 313.15 K)	mass density ([1]; 323.15 K)	mass density ([1]; 333.15 K)	mass density ([1]; 343.15 K)	activity coefficient ([2]; 328.15 K)	activity coefficient ([2]; 338.15 K)	activity coefficient ([2]; 348.15 K)	activity coefficient ([2]; 358.15 K)	activity coefficient ([2]; 368.15 K)	activity coefficient ([2]; 318.15 K)
CCCC[n+]1ccc(C)cc1.N#CC(=C=[N-])C#N [1-butyl-4-methylpyridinium tricyanomethanide]	1037.3 ± 0.9 kg/m3	1031.7 ± 0.9 kg/m3	1026.2 ± 0.9 kg/m3	1020.7 ± 0.9 kg/m3	1015.1 ± 0.9 kg/m3	1009.6 ± 0.9 kg/m3						
CCC[N+](=O)[O-] [1-nitropropane] + CCCC[n+]1ccc(C)cc1.N#CC(=C=[N-])C#N							0.748 ± 0.049	0.756 ± 0.05	0.769 ± 0.05	0.783 ± 0.051	0.792 ± 0.052	
CO [methanol] + CCCC[n+]1ccc(C)cc1.N#CC(=C=[N-])C#N							0.644 ± 0.044	0.625 ± 0.043	0.612 ± 0.043	0.593 ± 0.042	0.58 ± 0.041	0.663 ± 0.045
CC(C)CO [2-methyl-1-propanol] + CCCC[n+]1ccc(C)cc1.N#CC(=C=[N-])C#N							1.23 ± 0.079	1.16 ± 0.074	1.11 ± 0.07	1.06 ± 0.067	1.02 ± 0.064	1.33 ± 0.086
CC1CCCCC1 [methylcyclohexane] + CCCC[n+]1ccc(C)cc1.N#CC(=C=[N-])C#N							14.8 ± 1	13.9 ± 1	13.4 ± 0.9	12.7 ± 0.9	12.1 ± 0.8	15.8 ± 1.1
O [water] + CCCC[n+]1ccc(C)cc1.N#CC(=C=[N-])C#N							0.926 ± 0.059	0.887 ± 0.056	0.859 ± 0.055	0.826 ± 0.053	0.796 ± 0.052	0.971 ± 0.061
c1ccncc1 [pyridine] + CCCC[n+]1ccc(C)cc1.N#CC(=C=[N-])C#N							0.498 ± 0.038	0.51 ± 0.038	0.528 ± 0.039	0.542 ± 0.04	0.557 ± 0.04	
CCCCCCCCCC [decane] + CCCC[n+]1ccc(C)cc1.N#CC(=C=[N-])C#N							83 ± 5.7	76.5 ± 5.2	72.6 ± 5	67.7 ± 4.6	62.8 ± 4.3	90.4 ± 6.2
C#CCCCC [1-hexyne] + CCCC[n+]1ccc(C)cc1.N#CC(=C=[N-])C#N							3.04 ± 0.21	3.1 ± 0.21	3.17 ± 0.22	3.25 ± 0.22	3.3 ± 0.22	2.98 ± 0.2
CC(C)O [propan-2-ol] + CCCC[n+]1ccc(C)cc1.N#CC(=C=[N-])C#N							1.09 ± 0.07	1.04 ± 0.07	1 ± 0.06	0.961 ± 0.06	0.928 ± 0.059	1.15 ± 0.07
CC(C)=O [acetone] + CCCC[n+]1ccc(C)cc1.N#CC(=C=[N-])C#N							0.617 ± 0.043	0.634 ± 0.044	0.656 ± 0.045	0.672 ± 0.046	0.686 ± 0.046	0.598 ± 0.042
C1CCCCCC1 [cycloheptane] + CCCC[n+]1ccc(C)cc1.N#CC(=C=[N-])C#N							12.1 ± 0.8	11.7 ± 0.8	11.1 ± 0.8	10.6 ± 0.7	10.3 ± 0.7	12.8 ± 0.9
CCc1ccccc1 [ethylbenzene] + CCCC[n+]1ccc(C)cc1.N#CC(=C=[N-])C#N							1.83 ± 0.12	1.87 ± 0.13	1.93 ± 0.13	1.98 ± 0.13	2.01 ± 0.14	1.78 ± 0.12
C1CCOC1 [tetrahydrofuran] + CCCC[n+]1ccc(C)cc1.N#CC(=C=[N-])C#N							0.807 ± 0.052	0.827 ± 0.053	0.856 ± 0.055	0.872 ± 0.056	0.907 ± 0.058	0.779 ± 0.051
CCCC(C)=O [pentan-2-one] + CCCC[n+]1ccc(C)cc1.N#CC(=C=[N-])C#N							0.986 ± 0.062	1.01 ± 0.06	1.05 ± 0.07	1.07 ± 0.07	1.1 ± 0.07	0.955 ± 0.06
Cc1ccccc1 [toluene] + CCCC[n+]1ccc(C)cc1.N#CC(=C=[N-])C#N							1.23 ± 0.08	1.27 ± 0.08	1.32 ± 0.09	1.36 ± 0.09	1.4 ± 0.09	1.19 ± 0.08
CCC(=O)CC [pentan-3-one] + CCCC[n+]1ccc(C)cc1.N#CC(=C=[N-])C#N							0.976 ± 0.061	1.01 ± 0.06	1.05 ± 0.07	1.07 ± 0.07	1.11 ± 0.07	0.942 ± 0.059
CCCCCCC [heptane] + CCCC[n+]1ccc(C)cc1.N#CC(=C=[N-])C#N							31.3 ± 2.1	29.7 ± 2	27.6 ± 1.9	25.8 ± 1.8	24.7 ± 1.7	33.7 ± 2.3
CCCCCCCCC [nonane] + CCCC[n+]1ccc(C)cc1.N#CC(=C=[N-])C#N							59.1 ± 4	55.7 ± 3.8	51.2 ± 3.5	47.6 ± 3.3	45.8 ± 3.1	65.1 ± 4.5
Cc1ccccc1C [1,2-dimethylbenzene] + CCCC[n+]1ccc(C)cc1.N#CC(=C=[N-])C#N							1.45 ± 0.1	1.49 ± 0.1	1.56 ± 0.1	1.61 ± 0.11	1.66 ± 0.11	1.4 ± 0.09
CCO [ethanol] + CCCC[n+]1ccc(C)cc1.N#CC(=C=[N-])C#N							0.876 ± 0.056	0.838 ± 0.054	0.812 ± 0.053	0.784 ± 0.051	0.755 ± 0.05	0.917 ± 0.058

Source: the NIST ThermoML archive (doi:10.1016/j.jct.2014.12.027)
